Measured values from patent US6496728B2, “Methods for extracting substances using alternating current” (University of Utah Research Foundation, priority 2000, dated 2002).

Experiments:
[1] = Constant current DC iontophoretic transport across human epidermal membrane in side-by-side diffusion cell
Protocol: Iontophoretic transport studies were carried out in a side-by-side two-chamber diffusion cell (diffusional surface area of around 0.8 cm^2 and chamber volume of 2 mL) with HEM at 37° C. The apparent permeability coefficients (P) in each experiment were calculated by: [formula]
where A is the membrane surface area, t is time, Q is the amount of permeant transported into the receiver chamber, and CD is the concentration of permeant in the donor chamber. The pH of the solutions in the donor and receiver chambers was checked after each iontophoresis run to detect possible water hydrolysis.
Constant current DC transport experiments were carried out at the current level of 0.13 mA/cm^2 using a constant current iontophoretic device (phoresor II Auto, Model No. PM 850, Iomed, Inc., Salt Lake City, Utah) with Ag—AgCl electrodes. […] HEM resistance during iontophoresis was measured by monitoring the electrical potential drop across the membrane using two flexible Luggin capillaries which were inserted into the donor and receiver compartments of the diffusion cells. Each of the Luggin capillaries contained a calomel electrode connected to a voltmeter. The HEM resistance could be determined during iontophoresis according the output current level and the voltmeter readings.
A trace amount of [^14C] […] One ml of sample was taken from the receiver chamber approximately every 30 minutes and replaced with the fresh PBS. A 10 μl sample was taken from the donor chamber every hour. Samples were mixed with 10 ml scintillation cocktail (Ultima Gold™, Packard Instrument Co., Meriden, Conn.) and assayed by a dual-labeled liquid scintillation counter (Parkard TriCarb™ Model 1900 TR Liquid Scintillation Analyzer).

[2] = AC without DC offset (AC + passive) transport across human epidermal membrane in side-by-side diffusion cell; format: in vitro ADME; conditions: target skin resistance 2 kΩ; for Papp: all data points from 100 to 330 min
Source text: The same protocol was used to reduce the skin electrical resistance to 2 kΩ as described in the AC+DC Offset method. […] Permeants and sampling protocol were the same as in the Constant Current and AC+DC Offset sessions as described above.

[3] = AC + DC offset iontophoretic transport across human epidermal membrane in side-by-side diffusion cell; format: in vitro ADME
Source text: The output AC voltage was manually adjusted between 3 to 8 volts to keep the skin resistance at 2 kΩ (±10%) and the DC offset value was kept constant at 0.25 V during the entire period of the experiment. The same permeants and sampling protocol were used as described in the Constant Current Session.

[4] = 0.13 mA/cm^2 DC, data points between 100 and 330 minutes
[5] = AC + DC, 50 Hz, DC offset 250 mV, target skin resistance 2 kΩ, data points between 100 and 330 minutes

Slope of normalized mannitol flux versus time (linear regression) [1, 4]	Rate of change of mannitol flux, fold higher with constant current DC than with AC without DC Offset ([1]; constant current DC versus AC without DC Offset)	Rate of change of mannitol flux, fold higher with constant current DC than with AC+DC Offset ([1]; constant current DC versus AC+DC Offset)	Papp ([1]; human)	Papp at 180 min ([1]; human)	Slope of normalized mannitol flux versus time (linear regression) ([2]; AC 50 Hz, no DC offset, data points between 100 and 330 minutes)	Papp ([2]; human, AC (50 Hz) w/o DC offset, 28 points (4 skin samples), read-out: Mannitol permeability coefficient, mean)	Papp at 180 min ([2]; human, AC (50 Hz) w/o DC offset, one time point (180 min), 4 samples, read-out: Mannitol permeability coefficient, mean)	Slope of normalized mannitol flux versus time (linear regression) [3, 5]	Rate of change of mannitol flux, lower with AC+DC Offset method compared with AC without DC Offset method ([3]; AC+DC Offset versus AC without DC Offset)	Papp ([3]; human, AC (50 Hz) with 0.25 V DC offset, target skin resistance 2 kΩ, all data points from 100 to 330 min, 36 points (6 skin samples), read-out: Mannitol permeability coefficient, mean)	Papp at 180 min ([3]; human, AC (50 Hz) with 0.25 V DC offset, target skin resistance 2 kΩ, one time point (180 min), 6 samples, read-out: Mannitol permeability coefficient, mean)	SMILES	Slope of normalized TEA^+ flux versus time (linear regression) [1, 4]	Papp ([2]; human, AC (50 Hz) w/o DC offset, 28 points (4 samples), read-out: TEA^+ permeability coefficient, mean)	Slope of normalized TEA^+ flux versus time (linear regression) [3, 5]
												CC[N+](CC)(CC)CC.[Br-] [TEA^+, tetraethylammonium bromide]	6 × 10^−9 cm sec^−1 min^−1	1.08 ×10⁻⁶ cm/s	2 × 10^−9 cm sec^−1 min^−1
4 × 10^−10 cm sec^−1 min^−1	5.7 fold	10 fold	0.16 ×10⁻⁶ cm/s	0.15 ×10⁻⁶ cm/s	7 × 10^−11 cm sec^−1 min^−1	0.0985 ×10⁻⁶ cm/s	0.101 ×10⁻⁶ cm/s	4 × 10^−11 cm sec^−1 min^−1	57%	0.16 ×10⁻⁶ cm/s	0.17 ×10⁻⁶ cm/s	OC[C@@H](O)[C@@H](O)[C@H](O)[C@H](O)CO [Mannitol, mannitol]			
